One data set relates to Picual olives. Kind of data set: Application of strigolactone analogs by irrigation to olive seedlings. It counts as in vivo, Olea europaea L. Conditions: irrigation to roots twice a week for 6 weeks, 0.03 and 0.3 μM, vs control. Here is the method:
The effect of application of various analogues of strigolactone (SL) on olives, given to roots by irrigation was examined. Three different SL analogs; […] The seedlings were rooted from cuttings and hardened, and were about 6 months old at the time of the experiment. Growth soil mixture was used as in the nursery. Each strigolactone analog was dissolved in acetone to give a 5.6 mM solution. This solution was then further diluted with distilled water to 0.03 and 0.3 μM. The diluted solution was injected to the roots twice a week for 6 weeks, and subsequently all the growing buds were counted. For each treatment (treated and control groups) 10 plants were measured. Experiments were repeated three times.

In a further data set the test system is olive seedling. Nature of the data set: Application to olive seedling stem under greenhouse conditions (parafilm, flexible or rigid tubes). Conditions: rigid tubes. On the procedure: EGO10 either with PVAc, or HPC+glycerin were applied on olive seedling stem by the use of parafilm cover as the apparatus, under greenhouse conditions (FIG. 15). Greenhouse conditions include controlled room temperature of 25° C. In each experiment, 10 plants were used for each treatment. The substances were applied on the stem by a spatula and covered with parafilm.
In attempt to improve the performance of the apparatus, different substances and different cover were used. Four formulations were developed and tested. These formulations are based on polysaccharide-sorbent-humidifier substances while the main difference between them is the viscosity of the final product and the ability to retain and release of the active ingredient (EGO 10). […] The cover consisted of a flexible plastic tube that was cut (FIG. 16A), placed on the seedling stem (FIG. 16B) and wrapped with transparent plaster (FIG. 16C). The plastic tubes were filled with the experimental material (FIG. 16D). Moist cotton was placed on both sides of the tubes to minimize water evaporation (FIG. 16E and FIG. 16F). Bud outgrowth was measured for 30 days.
Rigid plastic tubes were tested in order to determine their efficiency as a delivery device for application of the hormone formulations to plants. At first, eppendorf tubes served as prototype. The tubes ware cut from top to bottom and placed on the stem of seedlings. Each tube was sealed with a small moist cotton at the bottom, filled with 1 ml of the examined material and finally covered with transparent plastic tape (FIGS. 17A-17E). The tubes were filled with (HPC+glycerin), or PVAc and EGO10 In each experiment, 10 plants were used for each treatment. Greenhouse conditions include controlled room temperature of 25° C.
EGO10 (10 μM) or acetone control together with HPC+glycerin or PVAc were applied on the stem of olive cuttings by the use of rigid plastic tubes as described in Example 10 above.
Bud outgrowth of olive cuttings was measured until day 30.

A further data set relates to Roses (Rosa Hybrida). Nature of the data set: EGO10 collar application to roses. It counts as in vivo. Here is the method:
Three replicates on experiments were done in two commercial plots. EGO10 was applied at the indicated concentrations as a collar in Eppendorf tube (FIG. 24).
HPC+glycerin and EGO10 (25 or 50 μM), provided in rigid tubes, were applied as described above (Example 13) to roses (Rosa hybrid golden gate). 20 days following application of the formulation by the delivery device, the length of axillary buds (in centimeters) was measured and the number of lateral buds was counted.

In another data set the test system is Hypericum plants. Kind of data set: EGO10 collar and granules application to Hypericum plants. It counts as in vivo, Hypericum calycinum or Hypericum perforatum. On the procedure:
EGO10 (25 and 50 μM) with HPC+glycerin were applied in rigid tubes, as described above (Example 13) to Hypericum calycinum or Hypericum perforatum (Ivory Spices of Danziger, result of breeding for ornamental). Two replicates on experiments were done in the greenhouse. EGO10 was applied at the indicated concentrations as a collar. Also, EGO10 was applied in another, new way of application—as granules of slow release of 3×10^−8 M—that were applied in the soil, close to the root zone. […] An example to the results of the collar treatment is in FIG. 27.

The subject of the next data set is Pomegranate. Kind of data set: EGO10 collar application to pomegranate in commercial nursery. It counts as in vivo, Punica granatum. The settings on record: 50 μM as collar in Eppendorf tubes. Here is the method:
Two replicates on experiments were performed in commercial nursery.

The subject of the next data set is Koroneiki olives. Kind of data set: EGO10 collar and granules application to Koroneiki olives. It counts as in vivo, Olea europaea L. The settings on record: collar of 50 μM. Here is the method:
Since Koroneiki olives are one of the most abundant cultivars worldwide, the effect of application of collar of 50 μM and granules that release 3×10^−8 M on development of side branches in this cultivar was examined.

For data set [1], the system named is Tomato (Shirez, Ikram cultivars). Kind of data set: EGO10 collar, irrigation and granules application to greenhouse tomato. It counts as in vivo, Solanum lycopersicum. Conditions: for side branches: collar of 500 μM; for side branch weight: collars 25 and 50 μM. The source says:
Greenhouse tomato (Shirez, Ikram and other cultivars) are one of the crops that necessitate vast investment in the constant trimming of side branches. Hand labor is needed for this trimming, on an everyday basis, to avoid significant yield loses. The constant trimming is a cause for infection at trimming sites. […] For these experiments two cultivars of greenhouse tomato were used, Ikram and Shirez, both vigorously producing side branches that should be trimmed under commercial growth conditions.
Also, treatments that include irrigation with 3×10^−6 M (once a week for 6 weeks, 5 ml) and granules application (controlled release at that same concentration of 3×10^−6 M) were applied. Each treatment consisted of 20 plants, blocks of 4 plants were randomly distributed in the greenhouse.
Following, and to increase the possible effect of EGO10 on tomato branching, additional experiment was performed with tomato plants were treated with collar of 500 μM EGO10.

The next data set relates to Tomato (Ikram cultivar). Kind of data set: EGO10 collar combined with auxin spray on tomato. It counts as in vivo, Solanum lycopersicum. Here is the method:
The effect of EGO 10 combined with auxin was tested. […] Collar was applied 50 μM of EGO10 (FIG. 32) with a auxin daily spray (IAA) 5 ppm on the shoot tip. Also treatment with only the 50 μM collar of EGO10, an IAA treatment with no collar as a control for the auxin treatment and a control with no treatment were applied. Each treatment consisted of 10-12 plants, blocks of 4 plants were randomly distributed in the greenhouse.

For the molecule `CC1=C[C@H](O/C=C2\Cc3c(n(C)c4ccccc34)C2=O)OC1=O` [EGO10], the “number of growing buds / lateral branches” value in the data set with Picual olives is “repressing effect on axillary branch growth similar to that of GR24”. Also, the plant growth entry in the data set with olive seedling (10 μM with HPC+glycerin, greenhouse) was “without delaying plant growth”. Further, the bud outgrowth result in the data set with olive seedling (10 μM with HPC+glycerin, greenhouse, 30 days, not significantly different from control) was “some inhibition of bud outgrowth”; in the data set on olive seedling (50 μM with HPC+glycerin, until day 30, vs acetone+HPC+glycerin) it was “significantly inhibits bud outgrowth”. Also, the “growth of treated olive buds” value with olive seedling (50 μM with HPC+glycerin) was “grew properly”. Also, the lateral branching result in the data set on Roses (Rosa Hybrida) (25 or 50 μM with HPC+glycerin, collar in rigid tubes, 20 days) is reported as “clear tendency of reduction of lateral branching”. Moreover, the “development of water branches” value in the data set with Roses (Rosa Hybrida) (collar, 25 or 50 μM) is reported as “did not hinder development”. Besides, the “no. of axillary branches” value in the data set with Hypericum plants (50 μM as collar in Eppendorf tubes, not significantly different) is listed as “marked reduction in the no. of axillary branches”; with Hypericum plants (granules of slow release of 3×10^−8 M in the soil), “did not result with substantial changes in the no. of axillary branches”. The “number of axillary branches” value with Pomegranate was “marked and significant reduction in the number of axillary branches”. Moreover, the side branches development result in the data set with Koroneiki olives is listed as “effective in preventing side branches development”. The “yield determined as number of fruit” value in data set [1] (Ikram, EGO10 treated plants) was “increased”. The side branches result is “significant reduction in side branches” in data set [1] (Ikram) and “did not respond” in data set [1] (Shirez). Further, the side branch weight entry in data set [1] (Ikram) is “reduced to some extent branching”; in data set [1] (Shirez, irrigation, granules), “did not change significantly branching”. Moreover, the “bud outgrowth above the collar” value was “more moderate and not consistent respond” in the data set on Tomato (Ikram cultivar) (50 μM collar only); “clear inhibition of bud outgrowth” in the data set with Tomato (Ikram cultivar) (50 μM collar with auxin (IAA) daily spray 5 ppm).

The values are drawn from patent publication US20180235213A1, “PLANT HORMONE APPLICATION” (The State of Israel Ministry of Agriculture & Rural …, priority 2015, published 2018).
